According to PubChem BioAssay (NCI):
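All cell lines were grown in 96-well plates and treated with compound for 48 hours. GI50: concentration for 50% inhibition of growth. At the TGI there is no net growth.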

Assays:
Test in all cases: inhibition of tumour cell growth, NCI panel, 48 h
[1] = system: MDA-MB-435
[2] = system: HOP-92 NSCLC
[3] = system: K-562 leukemia
[4] = system: ACHN renal
[5] = system: LOX IMVI melanoma
[6] = system: SR leukemia
[7] = system: DU-145 prostate
[8] = system: NCI-H460 lung
[9] = system: A498 renal
[10] = system: SK-OV-3 ovarian
[11] = system: SF-295 CNS
[12] = system: CCRF-CEM leukemia
[13] = system: NCI-H226 lung
[14] = system: KM12 colon
[15] = system: TK-10 renal
[16] = system: SK-MEL-2 melanoma
[17] = system: OVCAR-5 ovarian
[18] = system: OVCAR-4 ovarian
[19] = system: U251 CNS
[20] = system: NCI-H522 lung
[21] = system: NCI/ADR-RES ovarian
[22] = system: SK-MEL-5 melanoma
[23] = system: OVCAR-3 ovarian
[24] = system: 786-0 renal
[25] = system: M14 melanoma
[26] = system: IGROV1 ovarian
[27] = system: MCF7 breast
[28] = system: SNB-19 CNS
[29] = system: RXF 393 renal
[30] = system: UO-31 renal
[31] = system: HCT-15 colon
[32] = system: RPMI-8226 leukemia
[33] = system: UACC-62 melanoma
[34] = system: T-47D breast
[35] = system: SN12C renal
[36] = system: SF-268 CNS
[37] = system: MOLT-4 leukemia
[38] = system: HCC-2998 colon
[39] = system: PC-3 prostate
[40] = system: NCI-H23 lung
[41] = system: SK-MEL-28 melanoma
[42] = system: OVCAR-8 ovarian
[43] = system: A549 NSCLC
[44] = system: HOP-62 NSCLC
[45] = system: HCT-116 colon
[46] = system: HS 578T breast
[47] = system: COLO 205 colon
[48] = system: CAKI-1 renal
[49] = system: MDA-MB-231 breast
[50] = system: UACC-257 melanoma
[51] = system: HT29 colon
[52] = system: SW-620 colon
[53] = system: HL-60(TB) leukemia
[54] = system: SNB-75 CNS
[55] = system: MALME-3M melanoma
[56] = system: SF-539 CNS

CC(C)(C)C(=O)OCCNc1nc(-c2ccccc2)nc2ccccc12
GI50 [1]: 15.7 µM
TGI [1]: 29.1 µM
GI50 [2]: 12.6 µM
TGI [2]: 29 µM
GI50 [3]: 2.11 µM
TGI [3]: 10.9 µM
GI50 [4]: 13.6 µM
TGI [4]: 26.5 µM
GI50 [5]: 10.3 µM
TGI [5]: 22 µM
GI50 [6]: 5.44 µM
TGI [6]: 61.5 µM
GI50 [7]: 13.3 µM
TGI [7]: 26.1 µM
GI50 [8]: 16.6 µM
TGI [8]: 34.7 µM
GI50 [9]: 15.1 µM
TGI [9]: 29 µM
GI50 [10]: 17.7 µM
TGI [10]: 38.9 µM
GI50 [11]: 10.7 µM
TGI [11]: 22.5 µM
GI50 [12]: 12.7 µM
TGI [12]: 35 µM
GI50 [13]: 20.2 µM
TGI [13]: 67.1 µM
GI50 [14]: 3.94 µM
TGI [14]: 17.4 µM
GI50 [15]: 11 µM
TGI [15]: 23 µM
GI50 [16]: 31.1 µM
TGI [16]: > 100 µM
GI50 [17]: 14.6 µM
TGI [17]: 27.8 µM
GI50 [18]: 23.3 µM
TGI [18]: 73.1 µM
GI50 [19]: 11.5 µM
TGI [19]: 23.6 µM
GI50 [20]: 27.5 µM
TGI [20]: > 100 µM
GI50 [21]: 16.6 µM
TGI [21]: 51.6 µM
GI50 [22]: 15.5 µM
TGI [22]: 28.8 µM
GI50 [23]: 3.68 µM
TGI [23]: 19.3 µM
GI50 [24]: 3.4 µM
TGI [24]: 19 µM
GI50 [25]: 7.57 µM
TGI [25]: 20.5 µM
GI50 [26]: 29.5 µM
TGI [26]: > 100 µM
GI50 [27]: 17.3 µM
TGI [27]: 43.2 µM
GI50 [28]: 17.3 µM
TGI [28]: 34.9 µM
GI50 [29]: 15.4 µM
TGI [29]: 32 µM
GI50 [30]: 13.2 µM
TGI [30]: 36.1 µM
GI50 [31]: 12.3 µM
TGI [31]: 24.8 µM
GI50 [32]: 3.7 µM
TGI [32]: 25.7 µM
GI50 [33]: 14.5 µM
TGI [33]: 27.5 µM
GI50 [34]: 22.5 µM
TGI [34]: 93.3 µM
GI50 [35]: 15.1 µM
TGI [35]: 28.4 µM
GI50 [36]: 16.8 µM
TGI [36]: 35.7 µM
GI50 [37]: 2.1 µM
TGI [37]: 19 µM
GI50 [38]: 16.4 µM
TGI [38]: 29.9 µM
GI50 [39]: 15.6 µM
TGI [39]: 32.6 µM
GI50 [40]: 12.1 µM
TGI [40]: 24.5 µM
GI50 [41]: 18.3 µM
TGI [41]: 40.1 µM
GI50 [42]: 13.5 µM
TGI [42]: 42.8 µM
GI50 [43]: 16.8 µM
TGI [43]: 39.5 µM
GI50 [44]: 13 µM
TGI [44]: 25.6 µM
GI50 [45]: 11.5 µM
TGI [45]: 23.7 µM
GI50 [46]: 11.5 µM
TGI [46]: 25.6 µM
GI50 [47]: 16.2 µM
TGI [47]: 37.9 µM
GI50 [48]: 11.6 µM
TGI [48]: 23.8 µM

Clc1ccccc1CN1COc2c(cc(Cl)c3cccnc23)C1
TGI [1]: 20.9 µM
TGI [2]: 23 µM
TGI [3]: 11.9 µM
TGI [4]: 13.4 µM
TGI [6]: 4 µM
TGI [7]: 21 µM
TGI [8]: 27.4 µM
TGI [49]: 9.33 µM
TGI [10]: 21.2 µM
TGI [11]: 16.6 µM
TGI [13]: 4.09 µM
TGI [14]: 14.6 µM
TGI [50]: 12.3 µM
TGI [15]: 26.5 µM
TGI [16]: 26.1 µM
TGI [17]: 15.1 µM
TGI [18]: 14.2 µM
TGI [19]: 14.1 µM
TGI [51]: 36.6 µM
TGI [20]: 15.7 µM
TGI [21]: 1.74 µM
TGI [22]: 5.78 µM
TGI [23]: 26.4 µM
TGI [24]: 18.9 µM
TGI [25]: 21.7 µM
TGI [26]: 23.7 µM
TGI [27]: 86.5 µM
TGI [28]: 17.2 µM
TGI [52]: 21 µM
TGI [29]: 39.6 µM
TGI [30]: 21.7 µM
TGI [31]: 10.9 µM
TGI [33]: 3.8 µM
TGI [53]: 8.9 µM
TGI [34]: > 100 µM
TGI [35]: 0.494 µM
TGI [36]: 46.5 µM
TGI [37]: 1.12 µM
TGI [54]: 18.8 µM
TGI [39]: 18.7 µM
TGI [40]: 13.2 µM
TGI [41]: 25.9 µM
TGI [42]: 13.9 µM
TGI [43]: 13.6 µM
TGI [55]: 11.1 µM
TGI [44]: 18.7 µM
TGI [45]: 15.4 µM
TGI [46]: 23.4 µM
TGI [56]: 10.9 µM
TGI [47]: 43.2 µM
TGI [48]: 24 µM
